pIC50: −log10 of the molar value.
Columns and labels:
[1] = target: T1, MDM2 (Homo sapiens, UniProt Q00987); assay: Inhibition test of MDM2-P53 (GST-MDM2, Biotin-P53, Anti-GST-Tb, SA-XL665); assay type: binding
T1 construct: made in house
Method in brief: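 HTRF-type assay using 4 nM GST-MDM2 (final), Biotin-P53, SA-XL665 and anti-GST-Tb in PBS with 0.1% BSA, 5 mM DTT and 1 mM AEBSF. Compounds in 5-fold serial dilutions over twelve points; incubation 90 min at 25° C with shaking before plate-reader read-out.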

[2] = system: human osteosarcoma cell line SJSA-1; assay: Inhibition of proliferation of human osteosarcoma cell line SJSA-1 (DAPI staining, In Cell Analyzer); settings: Homo sapiens, SJSA-1, 72 h, read-out: IC50 (nM), inhibitory activity on proliferation of human osteosarcoma cell line SJSA-1, SJSA-1, incubated 72 h

T1 sequence (Q00987 whole entry): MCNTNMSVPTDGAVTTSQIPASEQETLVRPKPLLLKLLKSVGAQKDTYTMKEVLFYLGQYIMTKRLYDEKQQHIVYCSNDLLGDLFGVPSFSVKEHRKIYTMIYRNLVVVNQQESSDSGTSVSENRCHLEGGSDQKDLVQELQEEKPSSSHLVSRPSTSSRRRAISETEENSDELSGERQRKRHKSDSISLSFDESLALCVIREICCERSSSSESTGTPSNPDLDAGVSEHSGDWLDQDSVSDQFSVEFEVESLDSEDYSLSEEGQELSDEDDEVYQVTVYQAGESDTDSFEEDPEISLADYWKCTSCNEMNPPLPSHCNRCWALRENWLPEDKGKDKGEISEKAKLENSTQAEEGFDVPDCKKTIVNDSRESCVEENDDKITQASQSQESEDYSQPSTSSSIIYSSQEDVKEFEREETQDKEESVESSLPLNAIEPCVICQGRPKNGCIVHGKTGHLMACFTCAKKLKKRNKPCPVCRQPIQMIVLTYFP

Compound	pIC50 [1]	IC50 [2] [nM]
COc1cc(C(C)C)ncc1-c1nc2c(n1C(C)C)[C@@]1(C(=O)Nc3cc(Cl)ccc31)N(c1cc(Cl)ccc1C)C2=O [Example S-164, (S)-6-chloro-5′-(5-chloro-2-methylphenyl)-3′-isopropyl-2′-(6-isopropyl-4-methoxypyridin-3-yl)-3′H-spiro[dihydroindole-3,4′-pyrrolo[3,4-d]imidazole]-2,6′(5′H)-dione]	9.03	16.8
COc1cc(C(C)C)ncc1-c1nc2c(n1C(C)C)[C@@]1(C(=O)Nc3cc(Cl)ccc31)N(c1cc(Cl)cnc1C)C2=O [Example S-166, (S)-6-chloro-5′-(5-chloro-2-methylpyridin-3-yl)-3′-isopropyl-2′-(6-isopropyl-4-methoxypyridin-3-yl)-3′H-spiro[dihydroindole-3,4′-pyrrolo[3,4-d]imidazole]-2,6′(5′H)-dione]	8.73	38.1
COc1nc(OCCF)ncc1-c1nc2c(n1C(C)C)[C@@]1(C(=O)Nc3cc(Cl)ccc31)N(c1cc(Cl)cnc1C)C2=O [Example S-170, (S)-6-chloro-5′-(5-chloro-2-methylpyridin-3-yl)-2′-(2-(2-fluoroethoxy)-4-methoxypyrimidin-5-yl)-3′-isopropyl-3′H-spiro[dihydroindole-3,4′-pyrrolo[3,4-d]imidazole]-2,6′(5′H)-dione]	8.73	131
COc1nc(OCCF)ncc1-c1nc2c(n1C(C)C)[C@@]1(C(=O)Nc3cc(Cl)ccc31)N(c1cccc(Cl)c1)C2=O [Example S-171, (S)-6-chloro-5′-(3-chlorophenyl)-2′-(2-(2-fluoroethoxy)-4-methoxypyrimidin-5-yl)-3′-isopropyl-3′H-spiro[dihydroindole-3,4′-pyrrolo[3,4-d]imidazole]-2,6′(5′H)-dione]	8.54	379
COc1nc(C(C)C)ncc1-c1nc2c(n1C(C)C)[C@@]1(C(=O)Nc3cc(Cl)ccc31)N(c1cc(Cl)ccc1C)C2=O [Example S-172, (S)-6-chloro-5′-(5-chloro-2-methylphenyl)-3′-isopropyl-2′-(2-isopropyl-4-methoxypyrimidin-5-yl)-3′H-spiro[dihydroindole-3,4′-pyrrolo[3,4-d]imidazole]-2,6′(5′H)-dione]	8.38	53.3
COc1cc(OCCF)ncc1-c1nc2c(n1C(C)C)[C@@]1(C(=O)Nc3cc(Cl)ccc31)N(c1cc(Cl)cnc1C)C2=O [Example S-173, (S)-6-chloro-5′-(5-chloro-2-methylpyridin-3-yl)-2′-(6-(2-fluoroethoxy)-4-methoxypyridin-3-yl)-3′-isopropyl-3′H-spiro[dihydroindole-3,4′-pyrrolo[3,4-d]imidazole]-2,6′(5′H)-dione]	8.86	217
COc1nc(C2CC2)ncc1-c1nc2c(n1C(C)C)[C@@]1(C(=O)Nc3cc(Cl)ccc31)N(c1cc(F)cc(Cl)c1)C2=O [Example S-174, (S)-6-chloro-5′-(3-chloro-5-fluorophenyl)-2′-(2-cyclopropyl-4-methoxypyrimidin-5-yl)-3′-isopropyl-3′H-spiro[dihydroindole-3,4′-pyrrolo[3,4-d]imidazole]-2,6′(5′H)-dione]	8.39	93.5
COc1cc(OC)c(-c2nc3c(n2C(C)C)[C@@]2(C(=O)Nc4cc(Cl)ccc42)N(c2cc(F)cc(Cl)c2)C3=O)cn1 [Example S-175, (S)-6-chloro-5′-(3-chloro-5-fluorophenyl)-2′-(4,6-dimethoxypyridin-3-yl)-3′-isopropyl-3′H-spiro[dihydroindole-3,4′-pyrrolo[3,4-d]imidazole]-2,6′(5′H)-dione]	8.71	49.2
COc1cc(C2CC2)ncc1-c1nc2c(n1C(C)C)[C@@]1(C(=O)Nc3cc(Cl)ccc31)N(c1cc(F)cc(Cl)c1)C2=O [Example S-176, (S)-6-chloro-5′-(3-chloro-5-fluorophenyl)-2′-(6-cyclopropyl-4-methoxypyridin-3-yl)-3′-isopropyl-3′H-spiro[dihydroindole-3,4′-pyrrolo[3,4-d]imidazole]-2,6′(5′H)-dione]	8.75	28.8
COc1cc(OCCF)ncc1-c1nc2c(n1C(C)C)[C@@]1(C(=O)Nc3cc(Cl)ccc31)N(c1cccc(Cl)c1)C2=O [Example S-177, (S)-6-chloro-5′-(3-chlorophenyl)-2′-(6-(2-fluoroethoxy)-4-methoxypyridin-3-yl)-3′-isopropyl-3′H-spiro[dihydroindole-3,4′-pyrrolo[3,4-d]imidazole]-2,6′(5′H)-dione]	8.63	421
CCOc1ncc(-c2nc3c(n2C(C)C)[C@@]2(C(=O)Nc4cc(Cl)ccc42)N(c2cc(F)cc(Cl)c2)C3=O)c(OC)n1 [Example S-180, (S)-6-chloro-5′-(3-chloro-5-fluorophenyl)-2′-(2-ethoxy-4-methoxypyrimidin-5-yl)-3′-isopropyl-3′H-spiro[dihydroindole-3,4′-pyrrolo[3,4-d]imidazole]-2,6′(5′H)-dione]	8.34	56.8
